In patent US4161598A, “1-Oxygenated-2,6-methano-3-benzazocines” (Sterling Drug Inc., priority 1977, dated 1979):

Legend:
morphine = morphine antagonist activity in the rat; conditions: as the free base
meperidine = meperidine antagonist activity in the rat; conditions: as the free base

COc1ccc2c(c1)[C@]1(C)CCN(C)[C@H](C2=O)[C@@H]1C (relative stereo) [Compound 12] was tested, and the activity against morphine (morphine) was “inactive” and the activity against meperidine (meperidine) was “weakly active”.
